Experimental data reported in patent US8889379B2, “Biocatalytic production of glycosides” (Universiteit Gent, priority 2010, dated 2014).
Entries after “also recorded” stand apart in the source; their conditions may differ.

Assays:
[1] = biological target: T1, cellodextrin phosphorylase from Clostridium stercorarium (CsCDP) (Thermoclostridium stercorarium, UniProt L7VUB7); assay: CsCDP activity assay (orthophosphate release, synthetic direction); format: biochemical; conditions: for Specific activity (U/mg): acceptor specificity, 30 mM Glc1P donor; for Specific activity (U/mg) / Relative activity (%): 50 mM MES buffer pH 6.5, 50 mM of acceptor; for Relative activity (%): relative to cellobiose
Procedure: (§1) Protein concentrations were measured with the BCA Protein Assay kit from Thermo Scientific. The activity assays were performed with 5% of purified enzyme (50 μg/mL, final concentration) in 50 mM MES buffer pH 6.5, containing 30 mM donor (Glc1P) or 100 mM donor (Gal1P) and 50 mM acceptor at 45° C. Samples were inactivated for 5 minutes at 95° C. before the amount of orthophosphate (Pi) was measured by the method of Gawronski and Benson, 2004. The Km and kcat values in the kinetic study were calculated from a Hanes-Woolf plot.

[2] = biological target: T1, cellodextrin phosphorylase from Clostridium stercorarium (CsCDP); assay: Kinetic study of the synthetic reaction of CsCDP (Hanes-Woolf plot); format: biochemical; conditions: donor substrate instead of Glc1P
Procedure: as §1

[3] = biological target: T1, cellodextrin phosphorylase from Clostridium stercorarium (CsCDP); assay: CsCDP activity assay (orthophosphate release, synthetic direction); format: biochemical; conditions: 20 mM of acceptor, 45° C. and pH 6.5
[4] = substrate: CCCCCCCCO[C@@H]1O[C@H](CO)[C@@H](O)[C@H](O)[C@H]1O; assay: Kinetic study of the synthetic reaction of CsCDP (Hanes-Woolf plot); format: biochemical, Clostridium stercorarium; conditions: other: synthetic reaction, 50 mM MES buffer pH 6.5 at 45° C.
[5] = substrate: O=P(O)(O)O[C@H]1O[C@H](CO)[C@@H](O)[C@H](O)[C@H]1O; assay: as above; format: biochemical, Clostridium stercorarium; conditions: other: synthetic reaction, 50 mM MES buffer pH 6.5 at 45° C.
[6] = substrate: O=P(O)(O)O[C@H]1O[C@H](CO)[C@H](O)[C@H](O)[C@H]1O; assay: as above; format: biochemical, Clostridium stercorarium; conditions: other: synthetic reaction, 50 mM MES buffer pH 6.5 at 45° C.
[7] = substrate: O=[N+]([O-])c1ccc(O[C@@H]2O[C@H](CO)[C@@H](O)[C@H](O)[C@H]2O)cc1; assay: as above; format: biochemical, Clostridium stercorarium; conditions: other: synthetic reaction, 50 mM MES buffer pH 6.5 at 45° C.

Row | Molecule | activity of CsCDP towards the substrate (in words) [1] | Specific activity (U/mg) ([1]; 45° C.) | Relative activity (%) ([1]; 45° C.) | other results
1 | OC[C@H]1O[C@H](O[C@H]2[C@H](O)[C@@H](O)C(O)O[C@@H]2CO)[C@H](O)[C@@H](O)[C@@H]1O (mixture of isomers) [Maltose] | very poor acceptors | 0.7 U/mg | 3% | 
2 | O=P(O)(O)O[C@H]1O[C@H](CO)[C@H](O)[C@H](O)[C@H]1O [Gal1P, α-galactose-1-phosphate] | active |  |  | efficiency on Gal1P as donor, times lower than on Glc1P [2]: about one thousand
3 | CCCCCCO[C@@H]1O[C@H](CO)[C@@H](O)[C@H](O)[C@H]1O [Hexyl β-glucoside] |  | 19.9 U/mg | 89% | 
4 | CO[C@@H]1O[C@H](CO)[C@@H](O)[C@H](O)[C@H]1O [Methyl β-glucoside] |  | 3.5 U/mg | 16% | 
5 | CCCCCCCCO[C@@H]1O[C@H](CO)[C@@H](O)[C@H](O)[C@H]1O [Octyl β-glucoside] |  | 20.4 U/mg | 91% | 
6 | O=[N+]([O-])c1ccc(O[C@@H]2O[C@H](CO)[C@@H](O[C@@H]3O[C@H](CO)[C@@H](O)[C@H](O)[C@H]3O)[C@H](O)[C@H]2O)cc1 [PNP β-cellobioside] |  | 29.0 U/mg | 129% | 
7 | O=[N+]([O-])c1ccc(O[C@@H]2O[C@H](CO)[C@@H](O)[C@H](O)[C@H]2O)cc1 [PNP β-glucoside, p-nitrophenyl beta-glucoside] |  | 24.7 U/mg | 110% | 
8 | O=[N+]([O-])c1ccc(O[C@@H]2OC[C@@H](O)[C@H](O)[C@H]2O)cc1 [PNP β-xyloside] |  | 7.5 U/mg | 33% | 
9 | OC[C@H]1O[C@@](CO)(O[C@H]2O[C@H](CO)[C@@H](O)[C@H](O)[C@H]2O)[C@@H](O)[C@@H]1O [Sucrose] | very poor acceptors | 0.7 U/mg | 3% | 
10 | Lactose | absolutely no activity could be detected; also recorded: inactive |  |  | 
11 | cellobiose |  | 22.4 U/mg | 100% | Activity (%) relative to the activity on cellobiose ([3]; donor 30 mM Glc1P): 100%
12 | oleoyl β-glucoside | better acceptors for CDP than cellobiose | 29.3 U/mg | 131% | Activity (%) relative to the activity on cellobiose ([3]; donor 30 mM Glc1P): 126%; Activity (%) relative to the activity on cellobiose ([3]; donor 100 mM Gal1P): 11%
13 | oleoyl β-sophoroside [Sophorolipid] |  |  |  | activity as fraction of that on cellobiose ([1]; Table 4): about one third; Activity (%) relative to the activity on cellobiose ([3]; donor 30 mM Glc1P): 36%
14 | CsCDP: recombinant cellodextrin phosphorylase from Clostridium stercorarium DSM8532, Genbank U60580 (protein, listed as Clostridium stercorarium) MRYGYFDEKAREYVITRPDTPTPWINYIGNGKYGGIVTNTGGGYSFHKDPQNRRITRYRYNNLPTDRPGRYIYVRDRLTGEYWNPGYQPVQRKLDSYRCRHGMGYTVLEGEYKGIAADVTYFVPDDRDFEIWLVQIRNLCHVERNLQVFSYAEFCFWDAIMDQQNVDWVQQINQGRYEDRLITWHPHHFKDACAFFATNAEINSFDTNLEAFIGRYRCESNPIAVETGACSNSVSYRMNGVGAFCIDVNLKPGEEREIIFILGFTENKSTIRDEIRDYLNVEYAKEALKRLKDSWEEYLDKLQIETPDRETNLFVNTWNQYQCKITFNWSRFVSMYSWGLGRGIGIRDSAQDTLGVMHSIPELAGGLIKRLIHCQYTDGRVYHLFFPLTGEGGIGDAPVVKFDWYSDDHLWLPIAANAYLKETANFDFFQSVVPYNDNKTEGTVWEHLNRAMEFTYNHRGPHALPYSRADWNDTLNLDMGNGIAETLFTSMLFSEPPLKRFRCRISDKRIATKYRYWYDEMKQAINEWCWDGEWYIRAFDDEGNVLGSGKNRYGKIFINSQSWAVLSMVAPEEYAKKCLESVYRHLNTKYGIVKVYPAYPEYNPKIGGMTTYPPGAKENGGIFAHTNPWVMIAECMMGNGRRAYQYYRQILPLTRNDDADLLEVEPYVYCQNILGKEHPQFGIGRNSWLTGTAAWNMVAVSQYILGIRPEYDGLTVDPCIPPDWKGFKVRRIFRGCVYNIEVRNPEGVRRCEKNCRRGVETDKIPVKPAGTVCECVVIMG |  |  |  | optimal temperature for activity in the direction of glycoside synthesis ([1]; 50 mM cellobiose, 30 mM Glc1P, 50 mM MES buffer pH 6.5): ~65 °C; optimal pH for activity in the direction of glycoside synthesis ([1]; 50 mM cellobiose, 30 mM Glc1P, 50 mM MES buffer, 45° C.): around 6.5; specific activity of the purified enzyme ([1]; His6-tagged purified CsCDP, cellobiose acceptor): 22.4 U/mg
15 | cellodextrin phosphorylase from Clostridium stercorarium (CsCDP) (Thermoclostridium stercorarium subsp. stercorarium DSM 8532) (protein) MRYGYFDEKAREYVITRPDTPTPWINYIGNGKYGGIVTNTGGGYSFHKDPQNRRITRYRYNNLPTDRPGRYIYVRDRLTGEYWNPGYQPVQRKLDSYRCRHGMGYTVLEGEYKGIAADVTYFVPDDRDFEIWLVQIRNLCHVERNLQVFSYAEFCFWDAIMDQQNVDWVQQINQGRYEDRLITWHPHHFKDACAFFATNAEINSFDTNLEAFIGRYRCESNPIAVETGACSNSVSYRMNGVGAFCIDVNLKPGEEREIIFILGFTENKSTIRDEIRDYLNVEYAKEALKRLKDSWEEYLDKLQIETPDRETNLFVNTWNQYQCKITFNWSRFVSMYQLGLGRGIGIRDSAQDTLGVMHSIPELAGGLIKRLIHCQYTDGRVYHLFFPLTGEGGIGDAPVVKFDWYSDDHLWLPIAANAYLKETANFDFLESVVPYNDNKTEGTVWEHLNRAMEFTYNHRGPHGLALIGRADWNDTLNLDMGNGIAESVFTSMLFCRAALEMIQMAEYTGQKDLATKYRYWYDEMKKAINEWCWDGEWYIRAFDDEGNVLGSGKNRYGKIFINSQSWAVLSMVAPEEYAKKCLESVYRHLNTKYGIVKVYPAYPEYNPKIGGMTTYPPGAKENGGIFAHTNPWVMIAECMMGNGRRAYQYYRQILPLTRNDDADLLEVEPYVYCQNILGKEHPQFGIGRNSWLTGTAAWNMVAVSQYILGIRPEYDGLTVDPCIPPDWKGFKVRRIFRGCVYNIEVRNPEGVSRGVKKIVVDGVETDKIPVKPAGTVCECVVIMG |  |  |  | Km [4]: 623 ± 26 µM; kcat [4]: 14.2 ± 0.5 s⁻¹; kcat/Km [4]: 20000 M⁻¹ s⁻¹; Km [5]: 2438 ± 16 µM; kcat [5]: 27.4 ± 1.7 s⁻¹; kcat/Km [5]: 10000 M⁻¹ s⁻¹; Km [6]: 31130 ± 683 µM; kcat [6]: 2.5 ± 0.1 s⁻¹; kcat/Km [6]: 100 M⁻¹ s⁻¹; Km [7]: 640 ± 38 µM; kcat [7]: 19.6 ± 1 s⁻¹; kcat/Km [7]: 30000 M⁻¹ s⁻¹
